Source: patent US20250059205A1, “Heterocyclic Compounds and Methods of Use” (AMGEN INC., priority 2021, published 2025)
pIC50: −log10 of the molar value. Like-named read-outs stand apart in the source and are kept apart here.

Key:
[1] = tested on: Phosphorylation of ERK1/2 in AsPC-1 cells; assay: Phospho-ERK1/2 MSD Assay (AsPC-1 cells); type: cell-based; conditions: Homo sapiens, read-out: p-ERK (AsPC-1 cells) IC50
Description: AsPC-1 (ATCC® CRL-1682™) cells were cultured in RPMI 1640 Medium (ThermoFisher Scientific 11875093) containing 10% fetal bovine serum (ThermoFisher Scientific 16000044) and 1× penicillin-streptomycin-glutamine (ThermoFisher Scientific 10378016). Sixteen hours prior to compound treatment, AsPC-1 cells were seeded in 96-well cell culture plates at a density of 25,000 cells/well and incubated at 37° C., 5% CO2. A compound dose-response titration was diluted in growth media, added to appropriate wells of a cell culture plate, and then incubated at 37° C., 5% CO2 for 2 hours. Following compound treatment, cells were washed with ice-cold Dulbecco's phosphate-buffered saline, no Ca^2+ or Mg^2+ (ThermoFisher Scientific 14190144), and then lysed in RIPA buffer (50 mM Tris-HCl pH 7.5, 1% Igepal, 0.5% sodium deoxycholate, 150 mM NaCl, and 0.5% sodium dodecyl sulfate) containing protease inhibitors (Roche 4693132001) and phosphatase inhibitors (Roche 4906837001). Phosphorylation of ERK1/2 in compound-treated lysates was assayed using Phospho-ERK1/2 Whole Cell Lysate kits (Meso Scale Discovery K151DWD) according to the manufacturer's protocol. Assay plates were read on a Meso Scale Discovery Sector Imager 6000, and data were analyzed using a 4-parameter logistic model to calculate IC50 values.

[2] = biological target: GDP-bound KRAS protein (aa 1-169), containing both G12D and C118A amino acid substitutions (Homo sapiens, UniProt P01116, C118A/G12D); assay: KRAS G12D Coupled Nucleotide Exchange Assay; type: biochemical; conditions: 2 h compound pre-incubation
GDP-bound KRAS protein (aa 1-169), containing both G12D and C118A amino acid substitutions, sequence (P01116 1-169 isoform P01116-2 G12D/C118A): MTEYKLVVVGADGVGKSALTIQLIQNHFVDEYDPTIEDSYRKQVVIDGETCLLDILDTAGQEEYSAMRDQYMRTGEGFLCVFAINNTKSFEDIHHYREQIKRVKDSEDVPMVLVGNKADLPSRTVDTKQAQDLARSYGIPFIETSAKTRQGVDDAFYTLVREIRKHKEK
Description: Following compound pre-incubation, purified SOS protein (aa 564-1049) and GTP (Roche 10106399001) were added to the assay wells and incubated for an additional 30 min. […] The assay plates were then read on a PerkinElmer EnVision Multilabel Reader, using AlphaScreen® technology, and data were analyzed using a 4-parameter logistic model to calculate IC50 values.

[3] = biological target: His-tagged KRAS G12D protein (Homo sapiens, UniProt P01116, G12D); assay: KRAS G12D TR-FRET Assay; type: binding
His-tagged KRAS G12D protein, sequence (P01116 1-188 isoform P01116-2 G12D): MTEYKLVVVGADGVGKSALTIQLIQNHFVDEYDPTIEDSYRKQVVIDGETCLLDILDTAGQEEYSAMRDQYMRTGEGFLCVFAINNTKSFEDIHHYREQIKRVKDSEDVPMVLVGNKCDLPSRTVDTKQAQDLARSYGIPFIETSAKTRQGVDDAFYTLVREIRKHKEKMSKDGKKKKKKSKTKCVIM
Description: Compounds of interest were prepared in a dose-response titration in DMSO, and 80 nL were added via Labcyte Echo to each well of a 384-well plate (Perkin Elmer 6008280). […] The plate was incubated for 30 minutes at room temperature. Biotinylated KRPep-2d substrate (Amgen) was diluted to 20 nM in Assay Buffer and 2 μL was added to all wells and incubated for 1 h at room temperature. Detection Reagent (0.4 nM LANCE Eu-W1024 Anti-6xHis (Perkin Elmer AD0401), 5 nM streptavidin-d2 (Cisbio 610SADLA)) was prepared in Assay Buffer, then 4 μL was added to the plate and incubated for 1 h at room temperature. Plates were read using PerkinElmer EnVision (ex: 320 nm, em1: 665 nm, em2: 615 nm) and em1/em2 data was used to generate curve fits using a 4-parameter logistic model to calculate IC50 values.

Structure (SMILES)	Avg 2 h Coupled Exchange IC50 [2] [µM]	pIC50 [3]	pIC50 ([1]; ASPC1, 2 h, 2 hours treatment)	pIC50 ([1]; ASPC1, 2 hours treatment)
CCc1c(F)ccc2cc(O)cc(-c3c(O)cc4c(N5CC6CCC(C5)N6)nc(OCC56CCCN5C[C@H](F)C6)nc4c3F)c12 (atropisomer, axis not shown; (M)) [Example 234, (M)-4-((1R,5S)-3,8-Diazabicyclo[3.2.1]octan-3-yl)-7-(8-ethyl-7-fluoro-3-hydroxynaphthalen-1-yl)-8-fluoro-2-(((2R,7aS)-2-fluorotetrahydro-1H-pyrrolizin-7a(5H)-yl)methoxy)quinazolin-6-ol]	0.002	9.00	7.66	–
Oc1cc(-c2ccc3c(N4C[C@H]5COC[C@@H](C4)N5)nc(OC[C@@]45CCCN4C[C@H](F)C5)nc3c2F)c2ccccc2c1 [Example 16, 4-(4-((1R,5S)-3-oxa-7,9-diazabicyclo[3.3. 1]nonan-7-yl)-8-fluoro-2-(((2R,7aS)-2-fluorotetrahydro-1H-pyrrolizin-7a(5H)-yl)methoxy)quinazolin-7-yl)naphthalen-2-ol]	0.007	7.70	5.32	–
Oc1ccc(Cl)c(-c2ccc3c(N4[C@@H]5CC[C@H]4CNC5)nc(OC[C@@]45CCCN4C[C@H](F)C5)nc3c2)c1F [Example 35, 3-(4-((1R,5S)-3,8-diazabicyclo[3.2. 1]octan-8-yl)-2-(((2R,7aS)-2-fluorotetrahydro-1H-pyrrolizin-7a(5H)-yl)methoxy)quinazolin-7-yl)-4-chloro-2-fluorophenol]	1.82	5.33	–	–
Oc1cc(-c2c(F)cc3c(N4[C@@H]5CC[C@H]4CNC5)nc(OC[C@@]45CCCN4C[C@H](F)C5)nc3c2O)c2ccccc2c1 [Example 102, 4-((1R,5S)-3,8-Diazabicyclo[3.2.1]octan-8-yl)-6-fluoro-2-(((2R,7aS)-2-fluorotetrahydro-1H-pyrrolizin-7a(5H)-yl)methoxy)-7-(3-hydroxynaphthalen-1-yl)quinazolin-8-ol]	0.055	6.84	–	5.00
Oc1cc(-c2ccc3c(C4=CC5CCC(C4)N5)nc(OC[C@@]45CCCN4C[C@H](F)C5)nc3c2)c2ccccc2c1 (some centres unmarked) [Example 108]	0.671	4.93	6.38	–
CCc1c(F)ccc2cc(O)cc(-c3ccc4c(N5C[C@@H]6CC[C@](F)(C5)N6)nc(OC[C@@]56CCCN5C[C@H](F)C6)nc4c3F)c12 [Example 178, 5-ethyl-6-fluoro-4-(8-fluoro-4-((1S,5S)-1-fluoro-3,8-diazabicyclo[3.2.1]octan-3-yl)-2-(((2R,7aS)-2-fluorotetrahydro-1H-pyrrolizin-7a(5H)-yl)methoxy)quinazolin-7-yl)naphthalen-2-ol]	0.005	8.52	6.84	–
CCc1c(F)ccc2cc(O)cc(-c3ccc4c(N5C[C@H]6CC[C@@](F)(C5)N6)nc(OC[C@@]56CCCN5C[C@H](F)C6)nc4c3F)c12 [Example 179, 5-ethyl-6-fluoro-4-(8-fluoro-4-((1R,5R)-1-fluoro-3,8-diazabicyclo[3.2.1]octan-3-yl)-2-(((2R,7aS)-2-fluorotetrahydro-1H-pyrrolizin-7a(5H)-yl)methoxy)quinazolin-7-yl)naphthalen-2-ol]	0.004	8.70	7.34	–
CCc1c(F)ccc2cc(O)cc(-c3c(F)cc4c(N5C[C@H]6CC[C@@H](C5)N6)nc(OCC5(C)CCC(=O)N5)nc4c3F)c12 (stereo partly drawn) [Example 216, 5-(((4-((1R,5S)-3,8-diazabicyclo[3.2.1]octan-3-yl)-7-(8-ethyl-7-fluoro-3-hydroxynaphthalen-1-yl)-6,8-difluoroquinazolin-2-yl)oxy)methyl)-5-methylpyrrolidin-2-one]	0.009	8.30	6.08	–

The next lines start with results.

Avg 2 h Coupled Exchange IC50 [2] [µM]	pIC50 [3]	Structure (SMILES)	pIC50 ([1]; ASPC1, 2 h, 2 hours treatment)	pIC50 ([1]; ASPC1, 2 hours treatment)
0.259	6.26	Oc1cc(-c2ccc3c(N4[C@@H]5CC[C@H]4CNC5)nc(OC[C@@]45CCCN4C[C@H](F)C5)nc3c2F)c2cnccc2c1 [Example 31, 8-(4-((1R,5S)-3,8-diazabicyclo[3.2. 1]octan-8-yl)-8-fluoro-2-(((2R,7aS)-2-fluorotetrahydro-1H-pyrrolizin-7a(5H)-yl)methoxy)quinazolin-7-yl)isoquinolin-6-ol]	–	–
1.67	5.59	N#Cc1c(OC[C@@]23CCCN2C[C@H](F)C3)nc2c(F)c(-c3cc(O)cc4ccccc34)c(Cl)cc2c1N1C[C@H]2CC[C@@H](C1)N2 [Example 61, 4-((1R,5S)-3,8-diazabicyclo[3.2. 1]octan-3-yl)-6-chloro-8-fluoro-2-(((2R,7aS)-2-fluorotetrahydro-1H-pyrrolizin-7a(5H)-yl)methoxy)-7-(3-hydroxynaphthalen-1-yl)quinoline-3-carbonitrile]	–	–
1.17	5.58	N#Cc1c(OC[C@@]23CCCN2C[C@H](F)C3)nc2c(F)c(-c3cc(O)cc4ccccc34)ccc2c1N1C[C@H]2CC[C@@H](C1)N2 [Example 62, 4-((1R,5S)-3,8-diazabicyclo[3.2. 1]octan-3-yl)-8-fluoro-2-(((2R,7aS)-2-fluorotetrahydro-1H-pyrrolizin-7a(5H)-yl)methoxy)-7-(3-hydroxynaphthalen-1-yl)quinoline-3-carbonitrile]	–	–
0.555	< 4.60	CN1C[C@H](F)C[C@H]1COc1nc2c(F)c(-c3cc(O)cc4ccccc34)c(Cl)cc2c(N2C[C@H]3CC[C@@H](C2)N3)c1C#N [Example 63, 4-((1R,5S)-3,8-diazabicyclo[3.2. 1]octan-3-yl)-6-chloro-8-fluoro-2-(((2S,4R)-4-fluoro-1-methylpyrrolidin-2-yl)methoxy)-7-(3-hydroxynaphthalen-1-yl)quinoline-3-carbonitrile]	–	–
0.3	6.03	Cn1ncc2cccc(-c3ccc4c(N5C[C@H]6CC[C@@H](C5)N6)nc(OC[C@@]56CCCN5C[C@H](F)C6)nc4c3)c21 [Example 66, 4-((1R,5S)-3,8-diazabicyclo [3.2. 1]octan-3-yl)-2-(((2R,7aS)-2-fluorotetrahydro-1H-pyrrolizin-7a(5H)-yl)methoxy)-7-(1-methyl-1H-indazol-7-yl)quinazoline]	–	–
0.199	6.29	Cc1ccc2cn[nH]c2c1-c1ccc2c(N3C[C@H]4CC[C@@H](C3)N4)nc(OC[C@@]34CCCN3C[C@H](F)C4)nc2c1 [Example 67, 4-((1R,5S)-3,8-diazabicyclo[3.2. 1]octan-3-yl)-2-(((2R,7aS)-2-fluorotetrahydro-1H-pyrrolizin-7a(5H)-yl)methoxy)-7-(6-methyl-1H-indazol-7-yl)quinazoline]	–	–
0.517	5.97	CN1C[C@H](F)C[C@H]1COc1nc(N2[C@@H]3CC[C@H]2CNC3)c2cc(F)c(-c3cc(O)cc4ccccc34)c(O)c2n1 [Example 103, 4-((1R,5S)-3,8-diazabicyclo[3.2.1]octan-8-yl)-6-fluoro-2-(((2S,4R)-4-fluoro-1-methylpyrrolidin-2-yl)methoxy)-7-(3-hydroxynaphthalen-1-yl)quinazolin-8-ol]	–	–
2.3	6.26	C=Cc1c(F)ccc2cccc(-c3ccc4c(N5[C@@H]6CC[C@H]5CNC6)nc(OC[C@@]56CCCN5C[C@H](F)C6)nc4c3)c12 [Example 104, 4-((1R,5S)-3,8-diazabicyclo[3.2.1]octan-8-yl)-7-(7-fluoro-8-vinylnaphthalen-1-yl)-2-(((2R,7aS)-2-fluorotetrahydro-1H-pyrrolizin-7a(5H)-yl)methoxy)quinazoline]	–	–
0.069	7.36	CCc1c(F)ccc2cc(O)cc(-c3ccc4c(N5C[C@H]6CC[C@@H](C5)N6)cc(OC[C@@]56CCCN5C[C@H](F)C6)nc4c3)c12 [Example 210, 4-(4-((1R,5S)-3,8-Diazabicyclo[3.2.1]octan-3-yl)-2-(((2R,7aS)-2-fluorotetrahydro-1H-pyrrolizin-7a(5H)-yl)methoxy)quinolin-7-yl)-5-ethyl-6-fluoronaphthalen-2-ol]	–	–
